A short description of data set [1]: Degradation of amoxicillin by gamma radiation, 1H and 13C NMR. The class given is physicochemical. As to conditions: 5 mg/mL in water/D2O 1:1, 7 kGy. As to the method: Further, an additional confirmation of the degradation of amoxicillin was conducted using ^1H and ^13C NMR studies. Amoxicillin is dissolved in water and diluted at a ratio of 1:1 using D2O. A high concentration of amoxicillin (5 mg/mL) was used for this technique, with water as the NMR solvent. […] It is observed that the proton signals (at 4.5 to 4.8 ppm) of amoxicillin before irradiation are disappearing upon irradiation treatment. FIG. 11 illustrates the ^13C spectra of 5 mg/mL amoxicillin before and after irradiation treatment at 7 kGy for amoxicillin. Overall, the intensities of ^13C peaks are reduced (approximately 50%) after irradiation treatment indicating the decomposition and reduction in amoxicillin concentration in the sample.

Data set [2] is described as follows: Removal of amoxicillin spiked in water, milk, eggs and chicken meat by gamma radiation, HPLC. The class given is physicochemical. As to conditions: for Removal percentage: 7 kGy, average across 1, 10, 20 and 50 |iM, assuming 15% error. The source says: In all the example mentioned in the foregoing, the source of gamma radiation is a Cobalt-60 gamma rays source model Gamma Cell 220 from MDS Nordion, Canada. The source of gamma radiation was calibrated using aqueous ferrous sulfate (Fricke dosimetry) solution.
The desired concentration of amoxicillin was spiked in water, milk, eggs, and chicken meat. 20 |iL of spiked water samples before and post irradiation treatment was directly injected in HPLC. Amoxicillin spiked in milk, eggs, and chicken meat was extracted using acetonitrile. 2 mL (milk or eggs) or 2 g (chicken meat) of the spiked samples was mixed with 5 mL acetonitrile and shaken for 10 minutes following which the samples were centrifuged for 5 minutes at a speed of 3000 rpm. 5 mL of the supernatant was evaporated in a rotary-evaporation system and the antibiotic residue was dissolved in 2 mL of double distilled water. 20 |iL of the extracted samples was injected in HPLC.
Direct Uv-Vis measurements cannot be conducted to quantify the antibiotics in samples extracted from dairy or poultry products due to the significant chemical interference. FIG. 5 illustrates a comparison of HPLC signals of a range of amoxicillin concentration before and after irradiation with 7 kGy.
Removal percentage of amoxicillin in different samples with varied concentrations is reported by comparing the original concentrations with the corresponding post irradiation concentrations (i.e. before and after irradiation). FIG. 9 illustrates the average removal percentages for each sample type across the different concentration range (1, 10, 20, and 50 |iM), assuming 15% error in the observations. It was observed that there was 100% removal and decomposition of amoxicillin in water & milk samples and 80% removal of amoxicillin in eggs & chicken meat samples at a radiation dose of 7 kGy, within the permissible limits accepted by IAEA for food irradiation.

Data set [3] in a line: Degradation of antibiotics in double distilled water by gamma radiation, UV-Vis absorption. The class given is physicochemical. As to conditions: 50 |iM in double distilled water, 7 kGy gamma radiation.
Procedure: The three target antibiotics as mentioned above were dissolved in double distilled water to make desired concentrations (in 10 mL volume). […] UV-Vis absorption spectra of the studied antibiotics in solution were recorded before and after irradiation treatment at different doses.
With reference to FIG. 2A, the maximum absorption of doxycycline at 275 nm was plotted against the concentration.
The next data set relates to E-coli. Put plainly: E-coli growth inhibition experiments. The class given is cell-based. How it is done:
With reference to FIG. 12 (top panel), two control experiments with water were conducted.

One molecule from US20200221739A1, “METHOD FOR REMOVAL OF ANTIBIOTIC RESIDUES FROM FOOD PRODUCTS” (The King Abdulaziz City for Science and Technology, priority 2016, published 2020) can be followed below.

As for `CC1(C)S[C@@H]2[C@H](NC(=O)[C@H](N)c3ccc(O)cc3)C(=O)N2[C@H]1C(=O)O` [amoxicillin], the “Reduction of intensities of 13C peaks after irradiation treatment” value in data set [1] is “approximately 50%”. In addition, the Removal percentage came out at 80% in data set [2] (chicken meat samples), 80% in data set [2] (eggs samples), 100% in data set [2] (milk samples) and 100% in data set [2] (water samples). The “Concentration of amoxicillin after irradiation (HPLC)” value in data set [2] (range of concentrations, after irradiation with 7 kGy) is reported as “below the detection limit of HPLC”. Besides, the “Removal (decrease of UV-Vis absorption bands) upon gamma irradiation” value in data set [3] was “completely removed”. The entries for the “Antimicrobial effect on E-coli growth” value in the data set with E-coli (amoxicillin 150 |iM irradiated at 7 kGy) and in the data set with E-coli (non-irradiated amoxicillin sample) were “complete loss of antimicrobial effect” and “growth inhibition”, respectively.
